Measured values as given in US8193175B2, “Ruthenium complexes for treating cancers” (Universite de Strasbourg, priority 2004, dated 2012).

Key:
HL-60 = assay: Proliferation test (UptiBlue) on HL-60; assay type: cell-based, human
Description: The products are tested on different cell lines. The cells used are RDM4 from a murine T lymphoma and a MOLT-4 line originating from an acute lymphoblastic leukemia. These cancer lines both express the p53 protein, unlike the HL-60 cells from a human promyelocytary leukemia where, following deletion of its gene, p53 is absent.
(§1) All of these cells are cultivated in RPMI 1640-Glutamax, supplemented by 10% calf foetal serum heat inactivated at 56° C. for 30 minutes, 1 mM sodium pyruvate, 1 mM non-essential amino acids and 50 μg/mL gentamycine (Life Technologies, Cergy Pontoise, France). The cultures are kept in an incubator at 37° C. with a moisture saturated atmosphere, with 5% CO2.
(§2) This test uses the UptiBlue reagent (Interchim, Montluçon, France), metabolised by the living cells. The cells are incubated on plates with 96 wells with 10^4 cells/well (200 μL) with the product and cultivated for 72 hours. Then, 20 μL UptiBlue are added to each well. After 3 hours incubation, the fluorescence of the samples contained in the plates is measured at 590 nm (excitation at 560 nm), using a Fluorolite 1000 microplate reader (Dynex technologies, Issy-Les-Moulineaux, France).
This sensitivity is reversed with the Ru complex. […] These latter, which have a normal p53 gene, are less sensitive to the Ru complex. […]

TK6 and NH32 lines = assay: Compared proliferation of lines TK6 and NH32; assay type: cell-based, human
Description: The influence of the p53 protein upon the effects induced by the products was determined by using the human lymphoblastoid line TK6 (p53 wild-type) and its NH32 variant of which the p53 gene was totally inactivated by double homologous recombination (Chuang et al, 1999). The TK6 cells originate from the American Tissue Culture Collection (ATGC, Manassas, Va., USA). The NH32 cells were supplied by H. L. Liber (Chuang et al, 1999).
as §1
as §2, with “France). […]” for “France).”

RDM4 cells = assay: Chemo-radiotherapeutic association on RDM4 cells (cell counting, propidium iodure apoptosis); assay type: cell-based, mouse; conditions: for proliferation of non-irradiated RDM4 cells (cell counting): cisplatinum 0.7 μM, ruthenium derivative 10 μM, no irradiation; for proliferation of RDM4 cells, compound plus ionising radiation: 4 Gy rapid neutrons plus compound 11 (10 μM)
Description: Cells of this same line are treated with concentrations of 0.7 μM cisplatinum and 15 μM complex 11. 24 hours after the start of the treatment, the cells are irradiated at 4 Gy with rapid neutrons. The effects of the chemo-radiotherapeutic association are then determined by simple cell counting, measuring the concentration of cells in the medium during treatment 24 hrs, 72 hrs and 168 hrs after irradiation.
Evaluation of the effects of a combined “ionising radiation+RDC-11” treatment upon proliferation and survival of the RDM4 murine cells. These cells originate from an AKR mouse lymphoma. The different tests were carried out in vitro, and five independent experiments were carried out.
The radiations used were rapid neutrons originating from the collision of 65 MeV protons on a Beryllium target (produced at the Cyclotron, Louvain la Neuve (LLN) in Belgium). The results of just one of these experiments which is representative of a set of three experiments carried out with this type of radiation are shown.
The RDM4 cells are adjusted to 50,000 cells/ml, in RPMI 1640 culture medium to which 10% foetal calf serum is added. 4 25 cm2 culture flasks are filled with cell suspension, at the rate of 10 ml/flask, i.e. 500,000 cells/flask.
Four flasks are prepared thus, each corresponding to a different experimental group: • Group 1: non-irradiated, untreated cells (Et/NI in FIG. 9) • Group 2: non-irradiated cells, treated with RDC-11 (RDC-11/NI in FIG. 9) • Group 3: irradiated, non-treated cells (Et/4 Gy in FIG. 9) • Group 4: irradiated cells, treated with RDC-11 (RDC-11/4 Gy in FIG. 9)
RDC-11, prepared from an ethanolic solution, is added to the cells (flask 2 and 4) 6 hours before irradiation. An identical volume of ethanol (Et, 66 μl) is added to flasks 1 and 3. The final concentration of RDC-11 is 10 μM, and the medium is not replaced over the 9 days of the experiment.
Flasks 3 and 4 are irradiated with 4 Gy, at ambient temperature, then returned to culture at 37° C.
On the days following irradiation, aliquots of cell suspensions are regularly taken. The number of cells is determined using a Coulter Counter. Other cells are fixed in ethanol, then marked with propidium iodure, in order to determined the percentage apoptosis.

A172 cells = assay: Western blot of p53, p73, p21 and Bax in A172 cells; assay type: cell-based, human
Description: FIG. 3: Detection of p53 and p73 in A172 cells treated with CDR. The A172 cells were treated with the concentrations indicated (2, 5 or 10 μM) with the various compounds and for the periods of time indicated (24 hrs or 6 hrs). The proteins were extracted with a lysis buffer and were separated on 10% SDS-Page gel. After being transferred onto nitrocellulose, the p53 and p73 proteins were detected by Western blot using anti-p53 (pAb1801) and anti-p73 (1/200, Ab2, Oncogene) antibody.
FIG. 4: Detection of p21 and Bax in A172 cells treated with CDR. The A172 cells were treated with the various compounds (10 μM) for 24 hrs. The proteins were extracted with a lysis buffer and were separated on 10% SDS-Page gel. After being transferred onto nitrocellulose, the p21 and Bax proteins were detected by Western blot using anti-p21 (1/200, Oncogene) and anti-Bax (1/2000, Santacruz) antibody.
For the purpose of determining the molecular mechanisms used by the ruthenium derivatives and comparing them with those induced by cisplatinum, the expression of p53, p73 p21 and bax in the A172 and HCT116 lines was analysed.

[1] = Preliminary toxicity experiment on healthy SWISS mice; assay type: in vivo; conditions: small number of healthy SWISS mice

Compound | IC50 (HL-60; p53-deficient line) | proliferation of TK6 (p53 wild-type) compared with NH32 (p53-/-) (TK6 and NH32 lines) | proliferation of non-irradiated RDM4 cells (cell counting) (RDM4 cells) | expression of p21 and Bax (A172 cells; 10 μM, 24 hours treatment) | p53 proteic levels (A172 cells; 6 hrs treatment) | p53 proteic levels (A172 cells; 24 hrs treatment) | growth inhibition, HL-60 compared with MOLT-4 (HL-60; p53-deficient HL-60 vs MOLT-4 with normal p53) | proliferation of RDM4 cells, compound plus ionising radiation (RDM4 cells) | proliferation of RDM4 cells, compound plus ionising radiation (RDM4 cells; listed as RDC-11) | effect of the combination with irradiation (RDM4 cells; RDC-11 10 μM plus 4 Gy) | percentage of cells in apoptosis (propidium iodure), co-treatment (RDM4 cells; RDC-11 10 μM plus 4 Gy, three days after start) | apparent toxicity [1]
N.N.[Cl][Pt][Cl] [Cisplatinum, reference compound] | 1000 nM | more significant effect upon the p53+/+ cells than upon the p53-deficient cells | inhibits proliferation more effectively than the ruthenium derivative | induces the expression of p21 and Bax | induce p53 | induces the p53 proteic levels | – | – | – | – | – | –
[Ru(C6H4-2-C5H4N)(phen)(NCMe)2]PF6 [Compound 11] | – | can be superposed | negligible | – | – | – | more significant for HL-60s than for MOLT-4s | cell proliferation practically zero | cell growth is significantly slowed down | supra-additive effect | greater than the sum of treatments taken separately | lack of apparent toxicity
